Source: patent publication US8247211B2, “Glycopeptide antibiotics” (American Cyanamid Company, priority 2001, dated 2012)

Tests used:
Assay in all cases: In vitro antibacterial evaluation: minimum inhibitory concentration (MIC), broth dilution method
Type in all cases: cell-based
[1] = test system: Enterococcus sp.; details: 18 hours at 35° C.
Procedure, shortened: (§1)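 First, organisms are seeded at 5×10^5 CFU/mL into Muller-Hinton II […]. Next, antibiotic is applied across 64-0.06 μg/mL by broth dilution (NCCLS M7-A2). Finally, the lowest inhibitory concentration is recorded as MIC.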

[2] = test system: Escherichia coli; details: 18 hours at 35° C.
Procedure, shortened: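 Test strains, among them recent clinical isolates carrying methicillin, penicillin and/or vancomycin resistance, were inoculated at 5×10^5 CFU/mL. A broth dilution series spanning 64-0.06 μg/mL in Muller-Hinton II […] (NCCLS M7-A2) defined the MIC as the lowest growth-inhibiting concentration.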

[3] = test system: Staphylococcus sp.; details: for MIC Staphylococcus aureus (ATCC 29213): strain ATCC 29213; for MIC Staphylococcus aureus (GC 1131): strain GC 1131; for MIC Staphylococcus aureus (GC 3051): strain GC 3051; for MIC Staphylococcus aureus (GC 3053): strain GC 3053; for MIC Staphylococcus aureus (GC 4541): strain GC 4541; for MIC Staphylococcus aureus (GC 4542): strain GC 4542; for MIC Staphylococcus aureus-SMITH (GC 4543): strain GC 4543; for MIC Staphylococcus aureus (GC 4544): strain GC 4544; for MIC Staphylococcus aureus (GC 4545): strain GC 4545; for MIC Staphylococcus haemolyticus (GC 4546): strain GC 4546; for MIC Coagulase Negative Staphylococcus (GC 4547): strain GC 4547; for MIC Coagulase Negative Staphylococcus (GC 4548): strain GC 4548; for MIC Coagulase Negative Staphylococcus (GC 4549): strain GC 4549; for MIC Coagulase Negative Staphylococcus (GC 4551): strain GC 4551; for MIC Coagulase Negative Staphylococcus (GC 6257): strain GC 6257
Procedure, shortened: as §1

[4] = test system: Streptococcus sp.; details: 18 hours at 35° C.
Procedure, shortened: as §1

[5] = Enterococcus faecalis (ATCC 29212)
[6] = Enterococcus faecalis (GC 2242)
[7] = Enterococcus faecalis (GC 2691)
[8] = Enterococcus faecalis (GC 3059)
[9] = Enterococcus faecalis (GC 4552)
[10] = Enterococcus faecalis (GC 4553)
[11] = Enterococcus faecalis (GC 4554)
[12] = Enterococcus faecalis (GC 6189)
[13] = broth dilution, inoculum 5×10^5 CFU/mL
[14] = Streptococcus agalactiae (GC 4564)
[15] = Streptococcus pneumoniae (ATCC 6301)
[16] = Streptococcus pneumoniae (GC 1894)
[17] = Streptococcus pneumoniae (GC 4565)
[18] = Streptococcus pyogenes (GC 4563)

CC(c1ccc(Cl)cc1)C1NC(=O)CNC(=O)C(CO)NC(=O)C(C(O)C2CNC(=N)N2C2OC(CO)C(O)C(O)C2O)NC(=O)C(C(O)C2CNC(=N)N2)NC(=O)C(Cc2ccc(OC3OC(CO)C(OC4OC5COC(C6CCCCC6)OC5C(O)C4O)C(O)C3O)cc2)NC1=O (stereo not drawn) [Example 193]
0.12 µg/mL: MIC Streptococcus pneumoniae (ATCC 6301) [4, 15] | MIC Streptococcus pneumoniae (ATCC 6301) [4, 13]
2 µg/mL: MIC Enterococcus avium (GC 4558) ([1]; Enterococcus avium (GC 4558)) | MIC Enterococcus faecalis (GC 2691) [1, 7] | MIC Enterococcus faecalis (GC 4553) [1, 10] | MIC Enterococcus faecalis (GC 4554) [1, 11] | MIC Enterococcus faecium (GC 4557) ([1]; Enterococcus faecium (GC 4557)) | MIC Enterococcus avium (GC 4558) [1, 13] | MIC Enterococcus faecalis (GC 2691) [1, 13] | MIC Enterococcus faecalis (GC 4553) [1, 13] | MIC Enterococcus faecalis (GC 4554) [1, 13] | MIC Enterococcus faecium (GC 4557) [1, 13] | MIC Escherichia coli (GC 4560) [2]
0.5 µg/mL: MIC Enterococcus faecalis (GC 6189) [1, 12] | MIC Enterococcus faecalis (GC 6189) [1, 13] | MIC Staphylococcus aureus (ATCC 29213) [3] | MIC Staphylococcus aureus (GC 3053) [3] | MIC Staphylococcus aureus (GC 4541) [3] | MIC Staphylococcus aureus-SMITH (GC 4543) [3] | MIC Staphylococcus aureus (GC 4545) [3] | MIC Staphylococcus haemolyticus (GC 4546) [3] | MIC Coagulase Negative Staphylococcus (GC 4551) [3]
<0.06 µg/mL: MIC Streptococcus agalactiae (GC 4564) [4, 14] | MIC Streptococcus pneumoniae (GC 1894) [4, 16] | MIC Streptococcus pneumoniae (GC 4565) [4, 17] | MIC Streptococcus pyogenes (GC 4563) [4, 18] | MIC Streptococcus agalactiae (GC 4564) [4, 13] | MIC Streptococcus pneumoniae (GC 1894) [4, 13] | MIC Streptococcus pneumoniae (GC 4565) [4, 13] | MIC Streptococcus pyogenes (GC 4563) [4, 13]
0.25 µg/mL: MIC Staphylococcus aureus (GC 4542) [3] | MIC Coagulase Negative Staphylococcus (GC 4548) [3] | MIC Coagulase Negative Staphylococcus (GC 4549) [3] | MIC Coagulase Negative Staphylococcus (GC 6257) [3]
32 µg/mL: MIC Escherichia coli (GC 4559) [2]
1 µg/mL: MIC Enterococcus faecalis (ATCC 29212) [1, 5] | MIC Enterococcus faecalis (GC 2242) [1, 6] | MIC Enterococcus faecalis (GC 3059) [1, 8] | MIC Enterococcus faecalis (GC 4552) [1, 9] | MIC Enterococcus faecium (GC 2243) ([1]; Enterococcus faecium (GC 2243)) | MIC Enterococcus faecium (GC 4556) ([1]; Enterococcus faecium (GC 4556)) | MIC Enterococcus faecalis (ATCC 29212) [1, 13] | MIC Enterococcus faecalis (GC 2242) [1, 13] | MIC Enterococcus faecalis (GC 3059) [1, 13] | MIC Enterococcus faecalis (GC 4552) [1, 13] | MIC Enterococcus faecium (GC 2243) [1, 13] | MIC Enterococcus faecium (GC 4556) [1, 13] | MIC Staphylococcus aureus (GC 1131) [3] | MIC Staphylococcus aureus (GC 3051) [3] | MIC Staphylococcus aureus (GC 4544) [3] | MIC Coagulase Negative Staphylococcus (GC 4547) [3]

CCCC(C)C1OCC2OC(OC3C(CO)OC(Oc4ccc(CC5NC(=O)C(C(C)c6ccc(Cl)cc6)NC(=O)CNC(=O)C(CO)NC(=O)C(C(O)C6CNC(=N)N6C6OC(CO)C(O)C(O)C6O)NC(=O)C(C(O)C6CNC(=N)N6)NC5=O)cc4)C(O)C3O)C(O)C(O)C2O1 (stereo not drawn) [Example 194, Cyclo[glycyl-4-chloro-β-methylphenylalanyl-O-[4-O-[4,6-O-(2-methylpentylidene)hexopyranosyl]hexopyranosyl]tyrosyl-3-(2-iminoimidazolidin-4-yl)seryl-3-(3-hexopyranosyl-2-iminoimidazolidin-4-yl)serylseryl]]
2 µg/mL: MIC Enterococcus avium (GC 4558) ([1]; Enterococcus avium (GC 4558)) | MIC Enterococcus faecalis (ATCC 29212) [1, 5] | MIC Enterococcus faecalis (GC 2691) [1, 7] | MIC Enterococcus faecalis (GC 4553) [1, 10] | MIC Enterococcus faecium (GC 4557) ([1]; Enterococcus faecium (GC 4557)) | MIC Enterococcus avium (GC 4558) [1, 13] | MIC Enterococcus faecalis (ATCC 29212) [1, 13] | MIC Enterococcus faecalis (GC 2691) [1, 13] | MIC Enterococcus faecalis (GC 4553) [1, 13] | MIC Enterococcus faecium (GC 4557) [1, 13] | MIC Escherichia coli (GC 4560) [2] | MIC Staphylococcus aureus (GC 4544) [3]
1 µg/mL: MIC Enterococcus faecalis (GC 2242) [1, 6] | MIC Enterococcus faecalis (GC 3059) [1, 8] | MIC Enterococcus faecalis (GC 4552) [1, 9] | MIC Enterococcus faecalis (GC 4554) [1, 11] | MIC Enterococcus faecium (GC 2243) ([1]; Enterococcus faecium (GC 2243)) | MIC Enterococcus faecium (GC 4556) ([1]; Enterococcus faecium (GC 4556)) | MIC Enterococcus faecalis (GC 2242) [1, 13] | MIC Enterococcus faecalis (GC 3059) [1, 13] | MIC Enterococcus faecalis (GC 4552) [1, 13] | MIC Enterococcus faecalis (GC 4554) [1, 13] | MIC Enterococcus faecium (GC 2243) [1, 13] | MIC Enterococcus faecium (GC 4556) [1, 13] | MIC Staphylococcus aureus (GC 1131) [3] | MIC Staphylococcus aureus (GC 3051) [3] | MIC Staphylococcus aureus (GC 3053) [3] | MIC Staphylococcus aureus (GC 4545) [3] | MIC Coagulase Negative Staphylococcus (GC 4547) [3] | MIC Coagulase Negative Staphylococcus (GC 4551) [3]
0.12 µg/mL: MIC Streptococcus pneumoniae (GC 1894) [4, 16] | MIC Streptococcus pneumoniae (GC 1894) [4, 13]
0.25 µg/mL: MIC Streptococcus pneumoniae (ATCC 6301) [4, 15] | MIC Streptococcus pneumoniae (ATCC 6301) [4, 13]
<0.06 µg/mL: MIC Streptococcus agalactiae (GC 4564) [4, 14] | MIC Streptococcus pneumoniae (GC 4565) [4, 17] | MIC Streptococcus pyogenes (GC 4563) [4, 18] | MIC Streptococcus agalactiae (GC 4564) [4, 13] | MIC Streptococcus pneumoniae (GC 4565) [4, 13] | MIC Streptococcus pyogenes (GC 4563) [4, 13]
0.5 µg/mL: MIC Enterococcus faecalis (GC 6189) [1, 12] | MIC Enterococcus faecalis (GC 6189) [1, 13] | MIC Staphylococcus aureus (ATCC 29213) [3] | MIC Staphylococcus aureus (GC 4541) [3] | MIC Staphylococcus aureus (GC 4542) [3] | MIC Staphylococcus aureus-SMITH (GC 4543) [3] | MIC Staphylococcus haemolyticus (GC 4546) [3] | MIC Coagulase Negative Staphylococcus (GC 4548) [3] | MIC Coagulase Negative Staphylococcus (GC 4549) [3] | MIC Coagulase Negative Staphylococcus (GC 6257) [3]
32 µg/mL: MIC Escherichia coli (GC 4559) [2]
